Paper PMC8893036 (European journal of medicinal chemistry, 2022)
Like-named read-outs stand apart in the source and are kept apart here. Values belong to the compound of their own block, whether it stands above or below them.

Experiments:
ABCG2 [1] = target: T1, ABCG2 (Homo sapiens, UniProt Q9UNQ0)
T1 sequence (Q9UNQ0 1-655): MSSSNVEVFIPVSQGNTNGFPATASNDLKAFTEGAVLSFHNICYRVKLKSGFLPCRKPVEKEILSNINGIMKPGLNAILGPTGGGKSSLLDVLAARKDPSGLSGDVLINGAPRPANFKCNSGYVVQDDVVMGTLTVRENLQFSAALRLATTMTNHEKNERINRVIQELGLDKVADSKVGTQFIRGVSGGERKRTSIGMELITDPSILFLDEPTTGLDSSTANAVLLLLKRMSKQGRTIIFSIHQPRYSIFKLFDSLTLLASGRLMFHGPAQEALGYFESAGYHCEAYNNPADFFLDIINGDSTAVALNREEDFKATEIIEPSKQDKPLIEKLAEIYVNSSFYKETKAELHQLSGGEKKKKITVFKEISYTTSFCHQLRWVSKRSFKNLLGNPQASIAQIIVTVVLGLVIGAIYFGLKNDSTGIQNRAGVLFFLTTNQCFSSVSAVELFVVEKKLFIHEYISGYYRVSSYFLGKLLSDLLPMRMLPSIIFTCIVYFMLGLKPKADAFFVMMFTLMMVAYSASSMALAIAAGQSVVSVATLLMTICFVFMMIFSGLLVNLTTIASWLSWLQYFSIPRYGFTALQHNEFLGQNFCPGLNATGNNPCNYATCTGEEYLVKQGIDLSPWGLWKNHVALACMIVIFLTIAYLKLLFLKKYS

ABCG2 [2] = target: T1, ABCG2; assay: ATPase activity of ABCG2, total membranes of High-Five insect cells
[3] = target: T2, human A3 adenosine receptor (Homo sapiens, UniProt P0DMS8); conditions: agonists; Tables S1 – S4; cited from earlier work
T2 sequence (P0DMS8 1-318): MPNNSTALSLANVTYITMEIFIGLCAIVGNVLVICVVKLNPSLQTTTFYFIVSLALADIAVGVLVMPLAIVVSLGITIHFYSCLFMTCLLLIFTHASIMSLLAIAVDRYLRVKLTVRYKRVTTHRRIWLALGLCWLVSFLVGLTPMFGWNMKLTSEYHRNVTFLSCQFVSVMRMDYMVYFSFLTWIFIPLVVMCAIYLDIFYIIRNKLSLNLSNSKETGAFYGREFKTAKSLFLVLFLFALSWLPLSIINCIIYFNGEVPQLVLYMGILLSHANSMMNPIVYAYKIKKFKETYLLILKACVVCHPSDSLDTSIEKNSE

P-gp (ABCB1) = conditions: cited from earlier work
ABCG2 [4] = target: T1, ABCG2; assay: in vitro; conditions: pH 6.8
human A2A receptor = conditions: cited from earlier work
human A1 receptor = conditions: cited from earlier work
[5] = target: mouse A3 adenosine receptor; conditions: read-out: A3 adenosine receptor affinity Ki; mouse homologue; cited from earlier work

SMILES: CNC(=O)[C@H]1O[C@@H](n2cnc3c(NCc4cccc(I)c4)nc(Cl)nc32)[C@H](O)[C@@H]1O [Compound 4, reference compound]
modulation of ABCG2 ATP hydrolysis (ABCG2 [1]): stimulated ATP hydrolysis at multiple concentrations

ATPase activity of ABCG2 % Stimulation (upward arrow) (ABCG2 [2]; 2.5 μM, basal ATPase activity = 0%, mean ± SD, three experiments): ≥ 50%
SMILES: CNC(=O)[C@]12C[C@@H]1[C@@H](n1cnc3c(NCc4cccc(Cl)c4)nc(C#Cc4ccc(F)c(F)c4)nc31)[C@H](O)[C@@H]2O [Compound 5]
modulation of ABCG2 ATP hydrolysis (ABCG2 [2]): stimulated ATP hydrolysis at multiple concentrations
human A3 adenosine receptor affinity [3]: single digit nM affinity
effect on ATPase activity of P-gp (P-gp (ABCB1)): stimulate the ATPase activity of P-gp

SMILES: CNC(=O)[C@]12C[C@@H]1[C@@H](n1cnc3c(NCc4cccc(Cl)c4)nc(C#Cc4ccccc4)nc31)[C@H](O)[C@@H]2O [Compound 8]
modulation of ABCG2 ATP hydrolysis (ABCG2 [2]): stimulated ATP hydrolysis at 2.5 μM, but not 10 μM

SMILES: CNC(=O)[C@]12C[C@@H]1[C@@H](n1cnc3c(NCc4cccc(Cl)c4)nc(C#Cc4cccc(Cl)c4)nc31)[C@H](O)[C@@H]2O [Compound 10]
modulation of ABCG2 ATP hydrolysis (ABCG2 [2]): stimulated ATP hydrolysis at 2.5 μM, but not 10 μM

SMILES: CNC(=O)[C@]12C[C@@H]1[C@@H](n1cnc3c(N[C@H]4C[C@@H]4c4ccc(F)c(F)c4)nc(C#Cc4cccc(F)c4)nc31)[C@H](O)[C@@H]2O [Compound 15]
modulation of ABCG2 ATP hydrolysis (ABCG2 [1]; human, 20 min, 2.5 μM, pH 6.8): stimulated ATP hydrolysis at 2.5 μM, but not 10 μM
human A3 adenosine receptor affinity [3]: single digit nM affinity

inhibition at 20 min, 2.5 µM (ABCG2 [4]): ≥ 50%
SMILES: CNC(=O)[C@]12C[C@@H]1[C@@H](n1cnc3c(NCc4cccc(-n5cc(-c6ccc(F)c(F)c6)nn5)c4)nc(C#Cc4ccc(F)cc4)nc31)[C@H](O)[C@@H]2O [Compound 16]

SMILES: CNC(=O)[C@]12C[C@@H]1[C@@H](n1cnc3c(NCc4cccc(-n5cc(-c6ccc(F)c(F)c6)nn5)c4)nc(C#Cc4ccc(F)c(F)c4)nc31)[C@H](O)[C@@H]2O [Compound 17]
human A3 adenosine receptor affinity [3]: single digit nM affinity
effect on ATPase activity of P-gp (P-gp (ABCB1)): partially inhibited the basal ATPase activity of P-gp

modulation of ABCG2 ATP hydrolysis (ABCG2 [1]; human, 20 min, 2.5 μM, pH 6.8): inhibited only at 10 μM
SMILES: CNC(=O)[C@]12C[C@@H]1[C@@H](n1cnc3c(NCc4cccc(-n5cc(-c6ccc(F)c(F)c6)nn5)c4)nc(C#Cc4ccc(F)cc4F)nc31)[C@H](O)[C@@H]2O [Compound 19]

SMILES: CNC(=O)[C@]12C[C@@H]1[C@@H](n1cnc3c(NCc4cccc(-n5cc(-c6ccc(F)c(F)c6)nn5)c4)nc(C#Cc4cc(F)c(F)c(F)c4)nc31)[C@H](O)[C@@H]2O [Compound 20]
modulation of ABCG2 ATP hydrolysis (ABCG2 [1]): inhibited ATP hydrolysis at both concentrations

modulation of ABCG2 ATP hydrolysis (ABCG2 [1]; human, 20 min, 2.5 μM, pH 6.8): inhibited only at 10 μM
SMILES: CNC(=O)[C@]12C[C@@H]1[C@@H](n1cnc3c(NCc4cccc(-n5cc(-c6ccc(F)c(F)c6)nn5)c4)nc(C#Cc4ccc(C(F)(F)F)cc4)nc31)[C@H](O)[C@@H]2O [Compound 21]

SMILES: CNC(=O)[C@]12C[C@@H]1[C@@H](n1cnc3c(NC)nc(C#Cc4ccc(Cl)s4)nc31)[C@H](O)[C@@H]2O [Compound 25]
modulation of ABCG2 ATP hydrolysis (ABCG2 [2]): stimulated ATP hydrolysis at 2.5 μM, but not 10 μM

SMILES: CCCNc1nc(C#Cc2ccc(Cl)s2)nc2c1ncn2[C@H]1[C@H](O)[C@H](O)[C@@]2(C(=O)NC)C[C@H]12 [Compound 26]
modulation of ABCG2 ATP hydrolysis (ABCG2 [1]): stimulated ATP hydrolysis at multiple concentrations

SMILES: CNc1nc(C#Cc2ccc(Cl)s2)nc2c1ncn2[C@H]1[C@H](O)[C@H](O)[C@@]2(C(=O)OC)C[C@H]12 [Compound 27]
modulation of ABCG2 ATP hydrolysis (ABCG2 [1]): stimulated ATP hydrolysis at multiple concentrations

modulation of ABCG2 ATP hydrolysis (ABCG2 [1]; human, 20 min, 2.5 μM, pH 6.8): inhibited only at 10 μM
SMILES: CNC(=O)[C@]12C[C@@H]1[C@@H](n1cnc3c(NCc4cccc(Cl)c4)nc(-n4cc(-c5ccc(F)c(F)c5)nn4)nc31)[C@H](O)[C@@H]2O [Compound 28]

SMILES: CNC(=O)[C@]12C[C@@H]1[C@@H](n1cnc3c(NCc4cccc(Cl)c4)nc(C#Cc4ccc(Cl)s4)nc31)[C@H](O)[C@@H]2O [Compound 29]
modulation of ABCG2 ATP hydrolysis (ABCG2 [1]): stimulated ATP hydrolysis at multiple concentrations

SMILES: O[C@@H]1[C@H](O)[C@@H]2C[C@@H]2[C@H]1n1cnc2c(NCc3cccc(Cl)c3)nc(C#Cc3ccc(F)c(F)c3)nc21 [Compound 30]
increase of P-gp ATPase activity (P-gp (ABCB1); 2.5 μM): 116%

SMILES: CNC(=O)[C@H]1O[C@@H](n2cnc3c(NC)nc(C#Cc4ccc(Cl)s4)nc32)[C@H](O)[C@@H]1O [Compound 32]
effect on ATPase activity of P-gp (P-gp (ABCB1)): very weak at P-gp

SMILES: CCCNc1nc(C#Cc2ccc(Cl)s2)nc2c1ncn2[C@@H]1O[C@H](C(=O)NC)[C@@H](O)[C@H]1O [Compound 33]
modulation of ABCG2 ATP hydrolysis (ABCG2 [1]): stimulated ATP hydrolysis at multiple concentrations

SMILES: COc1cc(CCNC2=NC(C#Cc3ccc(Cl)s3)=NC3=NC=NC32)ccc1O (centres unmarked) [Compound 37c]
activity at human A2A receptor (human A2A receptor; adenine series): inactive
activity at human A1 receptor (human A1 receptor; adenine series): inactive

SMILES: CCCOC(=O)[C@]12C[C@@H]1[C@@H](n1cnc3c(NC)nc(C#Cc4ccc(Cl)s4)nc31)[C@H](O)[C@@H]2O [Compound 45]
modulation of ABCG2 ATP hydrolysis (ABCG2 [1]): stimulated ATP hydrolysis at multiple concentrations
human A3 adenosine receptor affinity [3]: single digit nM affinity

SMILES: CNc1nc(C#Cc2ccc(Cl)s2)nc2c1ncn2[C@H]1[C@H](O)[C@H](O)[C@@]2(C(=O)Oc3ccccc3)C[C@H]12 [Compound 50]
modulation of ABCG2 ATP hydrolysis (ABCG2 [1]): stimulated ATP hydrolysis at multiple concentrations
human A3 adenosine receptor affinity [3]: single digit nM affinity

ATPase activity of ABCG2 % Stimulation (upward arrow) (ABCG2 [1]; human, 20 min, 2.5 μM, pH 6.8): ≥ 50%
SMILES: CCOC(=O)[C@]12C[C@@H]1[C@@H](n1cnc3c(NCCc4ccc(O)c(OC)c4)nc(C#Cc4ccc(Cl)s4)nc31)[C@H](O)[C@@H]2O [Compound 55]

SMILES: CCOC(=O)[C@]12C[C@@H]1[C@@H](n1ccc3c(NCCc4ccccc4)nc(C#Cc4ccccc4)nc31)[C@H](O)[C@@H]2O [Compound 60]
Ki [5]: > 10 µM
activity at human A2A receptor (human A2A receptor): inactive
activity at human A1 receptor (human A1 receptor): inactive

ATPase activity of ABCG2 % Stimulation (upward arrow) (ABCG2 [1]; human, 20 min, 2.5 μM, pH 6.8): ≥ 50%
SMILES: CCOC(=O)[C@]12C[C@@H]1[C@@H](n1ccc3c(NCCCc4ccc(OC)c(O)c4)nc(C#Cc4ccccc4)nc31)[C@H](O)[C@@H]2O [Compound 63]

ATPase activity of ABCG2 % Stimulation (upward arrow) (ABCG2 [1]; human, 20 min, 2.5 μM, pH 6.8): ≥ 50%
SMILES: CCOC(=O)[C@]12C[C@@H]1[C@@H](n1ccc3c(NCCCc4ccc(OC)c(O)c4)nc(C#Cc4ccc(Cl)s4)nc31)[C@H](O)[C@@H]2O [Compound 64]
